Experimental data taken from patent US20250188085A1, “COMPOSITIONS AND METHODS FOR INHIBITION OF RAS” (THERAS, INC., priority 2022, published 2025).
Where two headings read alike, the source gives them in different places.

Tests used:
pERK in NCI-H358 cells = assay: Cell-based pERK HTRF assay; details: 30 min incubation, read-out: pERK in NCI-H358 cell inhibition IC50
Procedure: pERK assays (Perkin Elmer) were used to determine the effectiveness of compounds of the present disclosure in disrupting KRAS G12C protein/effector signaling in cells.
On Day 1, cells (NCI-H358) were seeded into 96-well plates at 4×10^4 cells/well in complete growth media (RPMI, 10% FBS).
On Day 2, cells were treated with compounds at 0.25% DMSO. The source plate was created with compounds diluted in media at 5-fold the final assay concentration. The compounds were run in a 9-point concentration curve starting at 75 μM, with a 3-fold dilution between concentrations. 20 μL was transferred onto the cell plates (final volume in wells was 100 μL). Plates were harvested after 30 min incubation by aspirating media and adding kit-supplied 1× supplemented lysis buffer to all wells (75 μl per well). Plates were then placed on a plate shaker and incubated at 850 rpm for an additional 30 min.
Antibody mixture solution was prepared by diluting aliquoted d2 and Eu Cryptate antibodies 1:20 in kit supplied detection buffer, then mixed the diluted antibodies solutions (1:1 v:v). 4 μL of this solution was then added to a 384-well detection plate (Perkin Elmer; 6008230).
Samples were homogenized by pipetting up and down and then transferred (16 μL of cell lysates) from the 96-well cell culture plate to two wells of the HTRF 384-well detection plate containing the antibody solution. Plates were centrifuged (524 g for Imin) and allowed to incubate between 4 and 24 h at room temperature. Maximum signal is reached after 4 h incubation time and remains stable over a period of 24 hours. Therefore, readings can be made between 4 and 24 h of incubation. Plates were centrifuged again (524 g for Imin) and analyzed on the En Vision plate reader using the following settings: Excitation 320 nm, Bandwidth 75 nm; Emission 615 nm, Bandwidth 85 nm; Gain 100%; Flashes 100; Lag 60 μs.

[1] = biological target: T1, Avi-KRAS G12C (1-169) GppNHp/RAF1 RBD-3×FLAG (52-151) (Homo sapiens, UniProt P01116, G12C); assay: Raf1 RBD-KRAS G12C-GppNHp disruption (protein:protein interaction HTRF assay); format: biochemical
T1 construct: Avi-KRAS G12C (1-169) GppNHp/RAF1 RBD-3×FLAG (52-151)
Procedure: A protein: protein (PPI) interaction Homogeneous Time Resolved Fluorescence (HTRF) assay was used to determine the effectiveness of compounds of the present disclosure in disrupting KRAS G12C protein and effector (RAF1 or PIK3CA) binding.
The HTRF assay used the following reagents and proteins: 50 nM Avi-KRAS G12C Q25A (1-169) GppNHp/3×FLAG-PI3K CA (157-299); 50 nM Avi-KRAS G12C (1-169) GppNHp/RAF1 RBD-3×FLAG (52-151); 35 nM Avi-PI3K RBD-3×FLAG; Assay Buffer: 50 mM Tris pH 7.5, 100 mM NaCl, 5 mM MgCl2, 0.1% BSA, 0.01% Tween 20, 10% DMSO; Bead Buffer: 50 mM Tris pH 7.5, 0.01% Tween 20; Assay volume: 20 μL (384 well plate-low volume format); and Compound titration: 30-0.02 μM, 3× dilution series.
The HTRF assay employed the following protocol:
Compounds were dispensed in assay plate (384-well, Grenier Bione #784075) using Echo (model 555) with dose response settings: 200 nL final volume, titration from 100 μM as a 10-point dilution series. KRAS proteins were prepared in assay buffer, and dispensed on plates, 5 μL per well, then incubated for 1 h at room temperature, with 700 rpm shaking. RAF1 RBD and PI3K RBD CA were prepared in assay buffer, dispensed onto plates, 5 μL per well, and then incubated for 1 h at room temperature, with 700 rpm shaking. Reagent mix was then prepared and dispensed on plates, 10 μL per well, and then incubated for 1 h at room temperature, with 700 rpm shaking.
Plates were analyzed on an Envision plate reader using the following setting: Excitation 320 nm, Bandwidth 75 nm; Emission 615 nm, Bandwidth 85 nm; Gain 100%; Flashes 100; Lag 60 μs. Data was reported as percentage of activity, with DMSO as 100%. Data was plotted and analyzed using Prism 8.

[2] = biological target: T2, GDP-loaded KRAS4b (amino acids 1-169) G12C/C118S protein (Homo sapiens, UniProt P01116, C118S/G12C); assay: Covalent cysteine 12 modification by MALDI-TOF MS, GDP-loaded KRAS G12C; format: binding; details: 15 minutes reaction time point
T2 construct: KRAS4b (amino acids 1-169) G12C/C118S protein; made in house
Procedure: (§1) Reaction: 1 μM of GppNHp-, GTP-, or GDP-loaded KRAS4b (amino acids 1-169) G12C/C118S protein (produced in-house by Protein Expression Laboratory, FNLCR/Leidos Biomed) in 20 mM 4-(2-hydroxyethyl)-1-piperazineethanesulfonic acid (HEPES) buffer containing 150 mM NaCl, 1 mM MgCl2, pH 7.3 was prepared freshly before assay. Ten-μL aliquots of protein were dispensed onto low volume 384-well plate, then 375 nL DMSO, and 25 nL of tested compounds from 5 mM DMSO stocks were added to appropriate wells using ECHO 555 acoustic liquid handler (Labcyte Inc.). For each reaction/assay, three blanks were prepared by mixing 10 μL of protein solution with 400 nL DMSO. The contents of the wells were carefully mixed by aspiration, and then each plate was sealed with an adhesive cover, centrifuged at 2000 g for 1 minute, and kept in the dark at room temperature until 5 min, 15 min, 30 min, or 2 h collections.
(§2) Target pretreatment: Before each assay MALDI target (Bruker MPT 384 ground steel BC) was pre-treated by pipetting on each spot 0.75 μL of saturated sinapinic acid in acetonitrile (ACN).
(§3) Sample preparation: At collection time point, 2 μL of reaction mixtures were pipetted out into 20 μL MALDI matrix solution (saturated solution of sinapinic acid in 1:1 ACN:water solution containing 0.75% trifluoroacetic acid (TFA)) deposited on 384 well polypropylene plate. Resulting solution was mixed by aspiration, centrifuged at 2000 g for 1 minute, then 1 μL aliquots were dispensed on pre-treated MALDI target using Beckman Coulter Biomek FXP 96/384-Span-8 Laboratory Automation Workstation. Finally, the MALDI target was dried under mild vacuum to produce spots with fine crystalline structure.
(§4) Measurements: MALDI-TOF measurements were performed on a Bruker Daltonics rapiflex Tissuetyper TOF-TOF mass spectrometer using linear mode and mass range from 18.6 to 21.6 kDa. Detector gain was set to 3.3× (483 V), sample rate to 5 GS/s, real time smoothing to medium (175 MHz), laser smart beam pattern was set to: “MS Thin Layer M5”, and the laser frequency was 10000 Hz. Spectra were automatically collected using custom Auto Xecute method. Laser power was auto adjusted using fuzzy control. The peak selection range was set to be between 19000 and 21500 Da. Peak evaluation uses half width parameter set to be smaller than 40 Da for processed spectrograms (centroid peak detection; smoothed by SavitzkyGolay algorithm using 7 m/z width and 2 cycles; baseline was subtracted using median algorithm with flatness 1 and median level 0.01). Fuzzy control used Proteins/Oligonucleotides protocol with minimum half width 1/10 times above threshold. Up to 40000 satisfactory shots were collected in 10000 shot steps. Dynamic termination was implemented to finish data collection when peak signal/noise ratio was reaching value of 50.
(§5) Spectra processing: Spectra were smoothed by SavitzkyGolay algorithm using 7 m/z width and three cycles. Centroid peak detection algorithm was used with signal to noise threshold set to 6, relative intensity threshold 4%, peak width 10 m/z and median baseline subtraction using flatness of 1 and median level of 0.01. Peak intensity and area under the peak were evaluated and recorded for all peaks between 19,300 Da and 21,550 Da.
(§6) Calculation of percent modification: Percent modification was calculated as a ratio of peak height for protein modified by compound to sum of peak height of remaining protein plus peak height for protein modified by compound. If multiple modifications were observed each was calculated as a ratio of peak height for given modification versus sum of peak heights for all observed protein species. Data reported in Table 5 are from 15 minutes reaction time point.

[3] = biological target: T3, GppNHp-loaded KRAS4b (amino acids 1-169) G12C/C118S protein (Homo sapiens, UniProt P01116, C118S/G12C); assay: Covalent cysteine 12 modification by MALDI-TOF MS, GppNHp-loaded KRAS G12C; format: binding; details: 15 minutes reaction time point
T3 construct: KRAS4b (amino acids 1-169) G12C/C118S protein; made in house
Procedure: as §1, §2, §3, §4, §5, §6

| SMILES | IC50 (pERK in NCI-H358 cells; Homo sapiens, NCI-H358, 0.5 h) [nM] | IC50 [1] [nM] | GDP-KRAS G12C percent of modification [2] | GppNHp-KRAS G12C percent of modification [3] | IC50 (pERK in NCI-H358 cells) [nM] |
| --- | --- | --- | --- | --- | --- |
| C=CC(=O)N1CC[C@@H](Oc2nc(OC[C@@H]3CC(C)(C)CN3C)nc3c(F)c(-c4ccc(F)c5sc(N)nc45)c(C(F)(F)F)cc23)C1 (atropisomer, axis not shown) [Compound 16] |  | 500 to 5000 | A (percent of modification ≥70%) | C (10%≤modification <50%) | 100 to 1000 |
| C=CC(=O)N1CC[C@@H](Oc2nc(OC[C@@H]3CC(C)(C)CN3C)nc3c(F)c(-c4ccc(F)c5sc(N)nc45)c(C(F)(F)F)cc23)C1 (atropisomer, axis not shown) [Compound 17] |  | > 20000 | D (percent of modification <10%) | D (percent of modification <10%) | > 1000 |
| C=CC(=O)N1CC[C@@H](Oc2nc(OC[C@@H]3C[C@@H](F)CN3C)nc3c(F)c(-c4ccc(F)c5sc(N)nc45)c(C(F)(F)F)cc23)C1 (atropisomer, axis not shown) [Compound 18] |  | ≤ 500 | A (percent of modification ≥70%) | C (10%≤modification <50%) | ≤ 100 |
| C=CC(=O)N1CC[C@@H](Oc2nc(OC[C@@H]3C[C@@H](F)CN3C)nc3c(F)c(-c4ccc(F)c5sc(N)nc45)c(C(F)(F)F)cc23)C1 (atropisomer, axis not shown) [Compound 19] |  | 5000 to 20000 | D (percent of modification <10%) | D (percent of modification <10%) | > 1000 |
| C=CC(=O)N1CCC[C@@H](Oc2nc(OC[C@@H]3C[C@@H](F)CN3C)nc3c(F)c(-c4ccc(F)c5sc(N)nc45)c(C(F)(F)F)cc23)C1 (atropisomer, axis not shown) [Compound 21] |  | > 20000 | D (percent of modification <10%) | D (percent of modification <10%) | > 1000 |

Other lines, results leading:

| IC50 (pERK in NCI-H358 cells; Homo sapiens, NCI-H358, 0.5 h) [nM] | IC50 [1] [nM] | GDP-KRAS G12C percent of modification [2] | GppNHp-KRAS G12C percent of modification [3] | IC50 (pERK in NCI-H358 cells) [nM] | SMILES |
| --- | --- | --- | --- | --- | --- |
| ≤ 100 | ≤ 500 | A (percent of modification ≥70%) | A (percent of modification ≥70%) |  | C=CC(=O)N1CC[C@@H](Oc2nc(OC[C@@]34CCCN3C[C@H](F)C4)nc3c(F)c(-c4ccc(F)c5sc(N)nc45)c(Cl)cc23)C1 (atropisomer, axis not shown) [Compound 3] |
| > 1000 | > 20000 | D (percent of modification <10%) | D (percent of modification <10%) |  | C=CC(=O)N1CC[C@H](Oc2nc(OC[C@@]34CCCN3C[C@H](F)C4)nc3c(F)c(-c4ccc(F)c5sc(N)nc45)c(Cl)cc23)C1 (atropisomer, axis not shown) [Compound 4] |
|  | 5000 to 20000 | D (percent of modification <10%) | D (percent of modification <10%) | > 1000 | C=CC(=O)N1CC[C@H](Oc2nc(OC[C@@]34CCCN3C[C@H](F)C4)nc3c(F)c(-c4ccc(F)c5sc(N)nc45)c(C(F)(F)F)cc23)C1 (atropisomer, axis not shown) [Compound 5] |
|  | 500 to 5000 | C (10%≤modification <50%) | D (percent of modification <10%) | > 1000 | C=CC(=O)N1CC[C@H](Oc2nc(OC[C@@]34CCCN3C[C@H](F)C4)nc3c(F)c(-c4ccc(F)c5sc(N)nc45)c(Cl)cc23)C1 (atropisomer, axis not shown) [Compound 8] |
|  | 500 to 5000 | C (10%≤modification <50%) | D (percent of modification <10%) | 100 to 1000 | C=CC(=O)N1CC[C@H](Oc2nc(OC[C@@]34CCCN3C[C@H](F)C4)nc3c(F)c(-c4ccc(F)c5sc(N)nc45)c(C(F)(F)F)cc23)C1 (atropisomer, axis not shown) [Compound 9] |
|  | 500 to 5000 | D (percent of modification <10%) | D (percent of modification <10%) | 100 to 1000 | C=CC(=O)N1CC[C@@H](Oc2nc(OC[C@@]34CCCN3C[C@H](F)C4)nc3c(F)c(-c4ccc(F)c5sc(N)nc45)c(Cl)cc23)C1 (atropisomer, axis not shown) [Compound 10] |
| > 1000 | 5000 to 20000 | B (50≤percent of modification <70%) | D (percent of modification <10%) |  | C=CC(=O)N1CCC[C@@H](Oc2nc(OC[C@@H]3C[C@@H](F)CN3C)nc3c(F)c(-c4ccc(F)c5sc(N)nc45)c(C(F)(F)F)cc23)C1 (atropisomer, axis not shown) [Compound 20] |
